Assay results taken from US8343467B2 (Beiersdorf AG, priority 2004, dated 2013).

Experiments:
[1] = compared with scopolamine, cited from earlier work
bacteria = experiment: antimicrobial / antibacterial effectiveness of glycopyrrolate alone and as enhancer; format: cell-based
Excerpt: Although this incorporation alone is not sufficient to destroy the bacteria, this makes them more susceptible to attack by antibacterial substances (deodorizing/antiperspirant agents) which can pass through or even destroy the membrane due to the impaired membrane integrity.

For `C[N+]1(C)CC[C@@H](OC(=O)[C@@](O)(c2ccccc2)C2CCCC2)C1` (relative stereo) [Glycopyrrolate, (±)-(R*)-3-[(S*)-(cyclopentyl hydroxyphenylacetoxy]-1,1-dimethylpyrrolidiniumbromide], the “penetration of biological membranes” value [1] is listed as “penetrates biological membranes more slowly”, the side effects ([1]; topical) is listed as “fewer side effects than scopolamine” and the antimicrobial effectiveness (bacteria; glycopyrrolate alone) is listed as “no or only slight antimicrobial effectiveness”. For the same molecule, the antibacterial effect (bacteria; glycopyrrolate alone in the formulations used) was “does not show any antibacterial effect”.
